Assay: The drug is tested on Alistipes indistinctus strain: DSM22520 for biotransformation. The drug concentrations were measured before and after a 12-h incubation by liquid-chromatography-coupled mass spectrometry (LC–MS)
Conditions: 2 µM

Compound | Bacterial Biotransformation
CC(Oc1c(Cl)cccc1Cl)C1=NCCN1 (stereo not given) [LOFEXIDINE] | Compound metabolized
C[C@@H]1CC[C@H]2[C@@H](C)C(=O)O[C@@H]3O[C@@]4(C)CC[C@@H]1[C@]32OO4 [ARTEMISININ] | Compound metabolized
COc1c(C)c2c(c(O)c1C/C=C(\C)CCC(=O)OCCN1CCOCC1)C(=O)OC2 [MYCOPHENOLATE MOFETIL] | Compound metabolized

Assay: The drug is tested on Bacteroides coprophilus strain: DSM18228 for biotransformation. The drug concentrations were measured before and after a 12-h incubation by liquid-chromatography-coupled mass spectrometry (LC–MS)
Conditions: 2 µM

Compound | Bacterial Biotransformation
CC(Oc1c(Cl)cccc1Cl)C1=NCCN1 (stereo not given) [LOFEXIDINE] | Compound metabolized
C[C@@H]1CC[C@H]2[C@@H](C)C(=O)O[C@@H]3O[C@@]4(C)CC[C@@H]1[C@]32OO4 [ARTEMISININ] | Compound metabolized
COc1c(C)c2c(c(O)c1C/C=C(\C)CCC(=O)OCCN1CCOCC1)C(=O)OC2 [MYCOPHENOLATE MOFETIL] | Compound metabolized

Assay: The drug is tested on Bacteroides dorei strain: DSM17855 for biotransformation. The drug concentrations were measured before and after a 12-h incubation by liquid-chromatography-coupled mass spectrometry (LC–MS)
Conditions: phocaeicola dorei, 2 µM

Compound | Bacterial Biotransformation
CC(Oc1c(Cl)cccc1Cl)C1=NCCN1 (stereo not given) [LOFEXIDINE] | Compound metabolized
C[C@@H]1CC[C@H]2[C@@H](C)C(=O)O[C@@H]3O[C@@]4(C)CC[C@@H]1[C@]32OO4 [ARTEMISININ] | Compound metabolized
COc1c(C)c2c(c(O)c1C/C=C(\C)CCC(=O)OCCN1CCOCC1)C(=O)OC2 [MYCOPHENOLATE MOFETIL] | Compound metabolized

Assay: The drug is tested on Bacteroides ovatus strain: ATCC8483 for biotransformation. The drug concentrations were measured before and after a 12-h incubation by liquid-chromatography-coupled mass spectrometry (LC–MS)
Conditions: 2 µM

Compound | Bacterial Biotransformation
CC(Oc1c(Cl)cccc1Cl)C1=NCCN1 (stereo not given) [LOFEXIDINE] | Compound NOT metabolized
C[C@@H]1CC[C@H]2[C@@H](C)C(=O)O[C@@H]3O[C@@]4(C)CC[C@@H]1[C@]32OO4 [ARTEMISININ] | Compound metabolized
COc1c(C)c2c(c(O)c1C/C=C(\C)CCC(=O)OCCN1CCOCC1)C(=O)OC2 [MYCOPHENOLATE MOFETIL] | Compound metabolized

Assay: The drug is tested on Bacteroides pectinophilus strain: ATCC43243 for biotransformation. The drug concentrations were measured before and after a 12-h incubation by liquid-chromatography-coupled mass spectrometry (LC–MS)
Conditions: 2 µM

Compound | Bacterial Biotransformation
CC(Oc1c(Cl)cccc1Cl)C1=NCCN1 (stereo not given) [LOFEXIDINE] | Compound metabolized
C[C@@H]1CC[C@H]2[C@@H](C)C(=O)O[C@@H]3O[C@@]4(C)CC[C@@H]1[C@]32OO4 [ARTEMISININ] | Compound metabolized
COc1c(C)c2c(c(O)c1C/C=C(\C)CCC(=O)OCCN1CCOCC1)C(=O)OC2 [MYCOPHENOLATE MOFETIL] | Compound metabolized

Assay: The drug is tested on Bacteroides uniformis strain: ATCC8492 for biotransformation. The drug concentrations were measured before and after a 12-h incubation by liquid-chromatography-coupled mass spectrometry (LC–MS)
Conditions: 2 µM

Compound | Bacterial Biotransformation
CC(Oc1c(Cl)cccc1Cl)C1=NCCN1 (stereo not given) [LOFEXIDINE] | Compound metabolized
C[C@@H]1CC[C@H]2[C@@H](C)C(=O)O[C@@H]3O[C@@]4(C)CC[C@@H]1[C@]32OO4 [ARTEMISININ] | Compound metabolized
COc1c(C)c2c(c(O)c1C/C=C(\C)CCC(=O)OCCN1CCOCC1)C(=O)OC2 [MYCOPHENOLATE MOFETIL] | Compound metabolized

Assay: The drug is tested on Parabacteroides merdae strain: ATCC43184 for biotransformation. The drug concentrations were measured before and after a 12-h incubation by liquid-chromatography-coupled mass spectrometry (LC–MS)
Conditions: 2 µM

Compound | Bacterial Biotransformation
CC(Oc1c(Cl)cccc1Cl)C1=NCCN1 (stereo not given) [LOFEXIDINE] | Compound metabolized
C[C@@H]1CC[C@H]2[C@@H](C)C(=O)O[C@@H]3O[C@@]4(C)CC[C@@H]1[C@]32OO4 [ARTEMISININ] | Compound metabolized
COc1c(C)c2c(c(O)c1C/C=C(\C)CCC(=O)OCCN1CCOCC1)C(=O)OC2 [MYCOPHENOLATE MOFETIL] | Compound metabolized

Assay: The drug is tested on Anaerococcus hydrogenalis strain: DSM7454 for biotransformation. The drug concentrations were measured before and after a 12-h incubation by liquid-chromatography-coupled mass spectrometry (LC–MS)
Conditions: 2 µM

Compound | Bacterial Biotransformation
CC(Oc1c(Cl)cccc1Cl)C1=NCCN1 (stereo not given) [LOFEXIDINE] | Compound metabolized
C[C@@H]1CC[C@H]2[C@@H](C)C(=O)O[C@@H]3O[C@@]4(C)CC[C@@H]1[C@]32OO4 [ARTEMISININ] | Compound metabolized
COc1c(C)c2c(c(O)c1C/C=C(\C)CCC(=O)OCCN1CCOCC1)C(=O)OC2 [MYCOPHENOLATE MOFETIL] | Compound metabolized

Assay: The drug is tested on Anaerotruncus colihominis strain: DSM17241 for biotransformation. The drug concentrations were measured before and after a 12-h incubation by liquid-chromatography-coupled mass spectrometry (LC–MS)
Conditions: 2 µM

Compound | Bacterial Biotransformation
CC(Oc1c(Cl)cccc1Cl)C1=NCCN1 (stereo not given) [LOFEXIDINE] | Compound metabolized
C[C@@H]1CC[C@H]2[C@@H](C)C(=O)O[C@@H]3O[C@@]4(C)CC[C@@H]1[C@]32OO4 [ARTEMISININ] | Compound metabolized
COc1c(C)c2c(c(O)c1C/C=C(\C)CCC(=O)OCCN1CCOCC1)C(=O)OC2 [MYCOPHENOLATE MOFETIL] | Compound metabolized

Assay: The drug is tested on Clostridium ramosum strain: DSM1402 for biotransformation. The drug concentrations were measured before and after a 12-h incubation by liquid-chromatography-coupled mass spectrometry (LC–MS)
Conditions: thomasclavelia ramosa, 2 µM

Compound | Bacterial Biotransformation
CC(Oc1c(Cl)cccc1Cl)C1=NCCN1 (stereo not given) [LOFEXIDINE] | Compound metabolized
C[C@@H]1CC[C@H]2[C@@H](C)C(=O)O[C@@H]3O[C@@]4(C)CC[C@@H]1[C@]32OO4 [ARTEMISININ] | Compound metabolized
COc1c(C)c2c(c(O)c1C/C=C(\C)CCC(=O)OCCN1CCOCC1)C(=O)OC2 [MYCOPHENOLATE MOFETIL] | Compound metabolized

Assay: The drug is tested on Enterococcus faecalis strain: V583 for biotransformation. The drug concentrations were measured before and after a 12-h incubation by liquid-chromatography-coupled mass spectrometry (LC–MS)
Conditions: 2 µM

Compound | Bacterial Biotransformation
CC(Oc1c(Cl)cccc1Cl)C1=NCCN1 (stereo not given) [LOFEXIDINE] | Compound NOT metabolized
C[C@@H]1CC[C@H]2[C@@H](C)C(=O)O[C@@H]3O[C@@]4(C)CC[C@@H]1[C@]32OO4 [ARTEMISININ] | Compound metabolized
COc1c(C)c2c(c(O)c1C/C=C(\C)CCC(=O)OCCN1CCOCC1)C(=O)OC2 [MYCOPHENOLATE MOFETIL] | Compound metabolized

Assay: The drug is tested on Eubacterium rectale strain: ATCC33656 for biotransformation. The drug concentrations were measured before and after a 12-h incubation by liquid-chromatography-coupled mass spectrometry (LC–MS)
Conditions: agathobacter rectalis, 2 µM

Compound | Bacterial Biotransformation
CC(Oc1c(Cl)cccc1Cl)C1=NCCN1 (stereo not given) [LOFEXIDINE] | Compound metabolized
C[C@@H]1CC[C@H]2[C@@H](C)C(=O)O[C@@H]3O[C@@]4(C)CC[C@@H]1[C@]32OO4 [ARTEMISININ] | Compound metabolized
COc1c(C)c2c(c(O)c1C/C=C(\C)CCC(=O)OCCN1CCOCC1)C(=O)OC2 [MYCOPHENOLATE MOFETIL] | Compound metabolized

Assay: The drug is tested on Ruminococcus gnavus strain: ATCC29149 for biotransformation. The drug concentrations were measured before and after a 12-h incubation by liquid-chromatography-coupled mass spectrometry (LC–MS)
Conditions: mediterraneibacter gnavus, 2 µM

Compound | Bacterial Biotransformation
CC(Oc1c(Cl)cccc1Cl)C1=NCCN1 (stereo not given) [LOFEXIDINE] | Compound metabolized
C[C@@H]1CC[C@H]2[C@@H](C)C(=O)O[C@@H]3O[C@@]4(C)CC[C@@H]1[C@]32OO4 [ARTEMISININ] | Compound metabolized
COc1c(C)c2c(c(O)c1C/C=C(\C)CCC(=O)OCCN1CCOCC1)C(=O)OC2 [MYCOPHENOLATE MOFETIL] | Compound metabolized

Assay: The drug is tested on Ruminococcus torques strain: ATCC27756 for biotransformation. The drug concentrations were measured before and after a 12-h incubation by liquid-chromatography-coupled mass spectrometry (LC–MS)
Type: ADME
Set-up: dose 2 uM, timepoint 0 vs 12 hours
Conditions: 2 µM

Compound | Bacterial Biotransformation
CC(Oc1c(Cl)cccc1Cl)C1=NCCN1 (stereo not given) [LOFEXIDINE] | Compound metabolized
C[C@@H]1CC[C@H]2[C@@H](C)C(=O)O[C@@H]3O[C@@]4(C)CC[C@@H]1[C@]32OO4 [ARTEMISININ] | Compound metabolized
COc1c(C)c2c(c(O)c1C/C=C(\C)CCC(=O)OCCN1CCOCC1)C(=O)OC2 [MYCOPHENOLATE MOFETIL] | Compound metabolized

Assay: The drug is tested on Edwardsiella tarda strain: ATCC23685 for biotransformation. The drug concentrations were measured before and after a 12-h incubation by liquid-chromatography-coupled mass spectrometry (LC–MS)
Conditions: 2 µM

Compound | Bacterial Biotransformation
CC(Oc1c(Cl)cccc1Cl)C1=NCCN1 (stereo not given) [LOFEXIDINE] | Compound metabolized
C[C@@H]1CC[C@H]2[C@@H](C)C(=O)O[C@@H]3O[C@@]4(C)CC[C@@H]1[C@]32OO4 [ARTEMISININ] | Compound metabolized
COc1c(C)c2c(c(O)c1C/C=C(\C)CCC(=O)OCCN1CCOCC1)C(=O)OC2 [MYCOPHENOLATE MOFETIL] | Compound metabolized

Assay: The drug is tested on Providencia stuartii strain: ATCC25827 for biotransformation. The drug concentrations were measured before and after a 12-h incubation by liquid-chromatography-coupled mass spectrometry (LC–MS)
Conditions: 2 µM

Compound | Bacterial Biotransformation
CC(Oc1c(Cl)cccc1Cl)C1=NCCN1 (stereo not given) [LOFEXIDINE] | Compound metabolized
C[C@@H]1CC[C@H]2[C@@H](C)C(=O)O[C@@H]3O[C@@]4(C)CC[C@@H]1[C@]32OO4 [ARTEMISININ] | Compound metabolized
COc1c(C)c2c(c(O)c1C/C=C(\C)CCC(=O)OCCN1CCOCC1)C(=O)OC2 [MYCOPHENOLATE MOFETIL] | Compound metabolized

Conditions: bifidobacterium adolescentis, 12 h, 2 µM
Description: The drug is tested on Bifidobacterium adolescentis strain: ATCC 15703 for biotransformation. The drug concentrations were measured before and after a 12-h incubation by liquid-chromatography-coupled mass spectrometry (LC–MS)

Compound | Bacterial Biotransformation
CC(Oc1c(Cl)cccc1Cl)C1=NCCN1 (stereo not given) [LOFEXIDINE] | Compound metabolized
C[C@@H]1CC[C@H]2[C@@H](C)C(=O)O[C@@H]3O[C@@]4(C)CC[C@@H]1[C@]32OO4 [ARTEMISININ] | Compound metabolized
COc1c(C)c2c(c(O)c1C/C=C(\C)CCC(=O)OCCN1CCOCC1)C(=O)OC2 [MYCOPHENOLATE MOFETIL] | Compound metabolized

Conditions: bacteroides fragilis, 12 h, 2 µM
Description: The drug is tested on Bacteroides fragilis strain: NCTC 9343 for biotransformation. The drug concentrations were measured before and after a 12-h incubation by liquid-chromatography-coupled mass spectrometry (LC–MS)

Compound | Bacterial Biotransformation
CC(Oc1c(Cl)cccc1Cl)C1=NCCN1 (stereo not given) [LOFEXIDINE] | Compound metabolized
C[C@@H]1CC[C@H]2[C@@H](C)C(=O)O[C@@H]3O[C@@]4(C)CC[C@@H]1[C@]32OO4 [ARTEMISININ] | Compound metabolized
COc1c(C)c2c(c(O)c1C/C=C(\C)CCC(=O)OCCN1CCOCC1)C(=O)OC2 [MYCOPHENOLATE MOFETIL] | Compound metabolized

Conditions: parabacteroides johnsonii, 12 h, 2 µM
Description: The drug is tested on Parabacteroides johnsonii strain: DSM18315 for biotransformation. The drug concentrations were measured before and after a 12-h incubation by liquid-chromatography-coupled mass spectrometry (LC–MS)

Compound | Bacterial Biotransformation
CC(Oc1c(Cl)cccc1Cl)C1=NCCN1 (stereo not given) [LOFEXIDINE] | Compound metabolized
C[C@@H]1CC[C@H]2[C@@H](C)C(=O)O[C@@H]3O[C@@]4(C)CC[C@@H]1[C@]32OO4 [ARTEMISININ] | Compound metabolized
COc1c(C)c2c(c(O)c1C/C=C(\C)CCC(=O)OCCN1CCOCC1)C(=O)OC2 [MYCOPHENOLATE MOFETIL] | Compound metabolized

Conditions: limosilactobacillus reuteri cf48-3a, 12 h, 2 µM
Description: The drug is tested on Lactobacillus reuteri CF48-3A strain: BEI HM-102 for biotransformation. The drug concentrations were measured before and after a 12-h incubation by liquid-chromatography-coupled mass spectrometry (LC–MS)

Compound | Bacterial Biotransformation
CC(Oc1c(Cl)cccc1Cl)C1=NCCN1 (stereo not given) [LOFEXIDINE] | Compound metabolized
C[C@@H]1CC[C@H]2[C@@H](C)C(=O)O[C@@H]3O[C@@]4(C)CC[C@@H]1[C@]32OO4 [ARTEMISININ] | Compound metabolized
COc1c(C)c2c(c(O)c1C/C=C(\C)CCC(=O)OCCN1CCOCC1)C(=O)OC2 [MYCOPHENOLATE MOFETIL] | Compound metabolized

Reference: ChEMBL document CHEMBL5303573, “Mapping human microbiome drug metabolism by gut bacteria and their genes” (Nature, 2019)
